Data taken from patent publication US7662553B2, “Polymorphisms in the ERCC1 gene for predicting treatment outcome” (University of Southern California, priority 2002, dated 2010).

Columns and labels:
[1] = tested on: locally advanced rectal cancer; assay: Pelvic recurrence after 5-FU and pelvic radiation by TS promoter genotype (Example 2); format: in vivo, human; conditions: pre- or post-operative 5-FU and pelvic radiation
Procedure: Methods: Forty-three (43) patients with locally advanced rectal cancer, who were treated with either pre-operative or post-operative 5-FU and pelvic radiation were analyzed. Genomic DNAs were extracted from paraffin-embedded tissue samples. Patients' genotype for the TS polymorphism was determined by polymerase chain reaction (PCR) amplification of TS promoter region.

[2] = tested on: locally advanced rectal cancer; assay: Time to local recurrence after adjuvant pelvic irradiation plus 5-FU infusion (Example 1); format: in vivo, human
Procedure: Methods: Seventy-three (73) patients with locally advanced rectal cancer (UICC stage II and III) were selected. They had been previously treated with adjuvant pelvic irradiation (45 Gy) to the whole pelvis with an additional boost up to 54 Gy plus 5-FU infusion therapy following tumor resection tissue acquisition during surgery. QRT-PCR (a fluorescence-based, quantitative real-time detection method (Taqman®)) was performed on RNA extracted from formalin-fixed, paraffin-embedded, laser-capture-microdissected tissue to establish gene expression levels. The mRNA was reverse transcribed to cDNA and the genes of interest were quantified as well as an internal reference gene (β-Actin) as a control. All gene expression levels were log-transformed prior to analysis. The maximal c^2 method of Miller, Siegmund (Miller R. and Siegmund D. Biometrics (1982) 38:1011-1016) and Halpem (Halpem J. (1982) Biometrics 38:1017-1023) was used to determine which gene expression best segregated patients into poor- and good-prognosis subgroups 2000 bootstrap-like simulations were used to estimate the distribution of the maximal c^2 statistics under the null hypothesis of no association.

| Structure (SMILES) | Effect on neurotoxicity in patients treated with oxaliplatin (celebrex 200-400 mg day, p<0.01) | Patients who developed grade II or III neurotoxicity (of 56 patients with celebrex therapy in combination with oxaliplatin/5-FU chemotherapy) | Pelvic recurrences, patients ([1]; TS (2/2) and (2/3) genotypes) | Pelvic recurrences, patients ([1]; TS (3/3) genotype) | Probability ± SE of 5-yr recurrence ([2]; total patients n=73, UICC stage II and III, pelvic irradiation 45 Gy with boost up to 54 Gy plus 5-FU infusion after resection) | Median time to recurrence ([2]; total patients n=73, pelvic irradiation plus 5-FU infusion after resection) |
| --- | --- | --- | --- | --- | --- | --- |
| Cc1ccc(-c2cc(C(F)(F)F)nn2-c2ccc(S(N)(=O)=O)cc2)cc1 [celebrex] | protecting against neurotoxicity | 3 patients |  |  |  |  |
| O=c1[nH]cc(F)c(=O)[nH]1 [5-FU, 5-fluorouracil] |  |  | 37% | 87% | 0.53 ± 0.08 | 57.0 Month |
